Laboratory results published in patent US20210292330A1, “PYRROLIDINE-FUSED HETEROCYCLES” (Erasca, Inc., priority 2020, published 2021).

Biological target: T1, KRAS 4B G12C protein (Homo sapiens, UniProt P01116, G12C)
T1 construct: This protein contained 188 amino acids in total, including an N-terminal 6-Histidine tag; made in house; host or cells: E. coli BL21
Experiment: In vitro covalent adduct formation (CAF) assay by LC-MS
Type: binding
Settings: compound 10 μM, protein 5 μM, 22° C., percentage of protein bound by the compound
Summary of the method: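 Percent of protein covalently modified was quantified from intact-mass LC-MS ratios of free versus adducted protein, adducts within 1 Da of expected mass. Reactions: 10 μM compound, 5 μM His-TEV-KRAS 4B G12C (1-169) in TBS pH 7.4, 4% DMSO, 22° C., one hour, run in duplicate.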

**Q.** How did the “CAF (10 minutes/60 minutes) at 10 micromolar: 10 minutes” value (“CAF … at 10 micromolar: 10 minutes” for short) turn out when C=CC(=O)N1CCN(c2nc(OC[C@@H]3CCCN3C)nc3c2CN(C2CC(C)(C)c4ccc(OC)cc42)C3)C[C@@H]1CC#N (some centres unmarked) [1-186] was run?
**A.** 14%

**Q.** What about the “CAF (10 minutes/60 minutes) at 10 micromolar: 60 minutes” value (shortened to “CAF … at 10 micromolar: 60 minutes”) of the same compound?
**A.** 36%

**Q.** With C=CC(=O)N1CCN(c2nc(OC[C@@H]3CCCN3C)nc3c2CN(Cc2ccccc2C(C)(C)C)C3)C[C@@H]1CC#N [1-187] as the compound, how does the “CAF … at 10 micromolar: 10 minutes” value read?
**A.** 94%

**Q.** What about the “CAF … at 10 micromolar: 60 minutes” value of the same compound?
**A.** 95%

**Q.** For C=CC(=O)N1CCN(c2nc(OC[C@@H]3CCCN3C)nc3c2CN(Cc2ccccc2C(C)CC)C3)C[C@@H]1CC#N (some centres unmarked) [1-188], which “CAF … at 10 micromolar: 10 minutes” value is on record?
**A.** 47%

**Q.** And the “CAF … at 10 micromolar: 60 minutes” value?
**A.** 79%

**Q.** How did the “CAF … at 10 micromolar: 10 minutes” value turn out when C=CC(=O)N1CCN(c2nc(OC[C@@H]3CCCN3C)nc3c2CN(C(C)c2ccccc2C(C)C)C3)C[C@@H]1CC#N (some centres unmarked) [1-189] was run?
**A.** 57%

**Q.** What about the “CAF … at 10 micromolar: 60 minutes” value of the same compound?
**A.** 61%

**Q.** For C=CC(=O)N1CCN(c2nc(OC[C@@H]3CCCN3C)nc3c2CN(C2CCc4ccccc42)C3)CC1 (some centres unmarked) [1-190], which “CAF … at 10 micromolar: 10 minutes” value is on record?
**A.** 6%

**Q.** What about the “CAF … at 10 micromolar: 60 minutes” value of the same compound?
**A.** 26%

**Q.** C=CC(=O)N1CCN(c2nc(OC[C@@H]3CCCN3C)nc3c2CN(Cc2ccccc2CC(C)C)C3)C[C@@H]1CC#N [1-191] was tested. Which “CAF … at 10 micromolar: 10 minutes” value did it give?
**A.** 52%

**Q.** What about the “CAF … at 10 micromolar: 60 minutes” value of the same compound?
**A.** 73%

**Q.** Which “CAF … at 10 micromolar: 10 minutes” value does the source give for C=CC(=O)N1CCN(c2nc(OC[C@@H]3CCCN3CC(C)C)nc3c2CN(C2CCc4ccccc42)C3)C[C@@H]1CC#N (some centres unmarked) [1-192] here?
**A.** 53%

**Q.** And the “CAF … at 10 micromolar: 60 minutes” value?
**A.** 65%

**Q.** C=CC(=O)N1CCN(c2nc(OC[C@@H]3CCCN3C)nc3c2CN(C2CCc4ccccc42)C3)[C@@H](C(N)=O)C1 (some centres unmarked) [1-193] was tested. Which “CAF … at 10 micromolar: 10 minutes” value did it give?
**A.** 7%

**Q.** What about the “CAF … at 10 micromolar: 60 minutes” value of the same compound?
**A.** 31%

**Q.** Which results are given for C=CC(=O)N1CCN(c2nc(OC[C@@H]3CCCN3C)nc3c2CN(C2CC(C)(C)c4ccc(O)cc42)C3)C[C@@H]1CC#N (some centres unmarked) [1-194]?
**A.** CAF (10 minutes/60 minutes) at 10 micromolar: 10 minutes: 32%/ 32%; CAF (10 minutes/60 minutes) at 10 micromolar: 60 minutes: 32%/ 32%

**Q.** What does the source list for C=CC(=O)N1CCN(c2nc(OC[C@@H]3CCCN3C)nc3c2CN(C2CCc4ccccc42)C3)C[C@@H]1CSC (some centres unmarked) [1-195]?
**A.** CAF (10 minutes/60 minutes) at 10 micromolar: 10 minutes: 0%; CAF (10 minutes/60 minutes) at 10 micromolar: 60 minutes: 2%

**Q.** With C=CC(=O)N1CCN(c2nc(OC[C@@H]3CCCN3C)nc3c2CN(Cc2ccc(F)cc2C(C)C)C3)C[C@@H]1CC#N [1-196] as the compound, how does the “CAF … at 10 micromolar: 10 minutes” value read?
**A.** 41%

**Q.** What about the “CAF … at 10 micromolar: 60 minutes” value of the same compound?
**A.** 52%

**Q.** Which results are given for C=CC(=O)N1CCN(c2nc(-c3nnc(C)o3)nc3c2CN(C2CCc4ccccc42)C3)C[C@@H]1CC#N (stereo partly drawn) [1-197, 2-((2S)-1-acryloyl-4-(6-(2,3-dihydro-1H-inden-1-yl)-2-(5-methyl-1,3,4-oxadiazol-2-yl)-6,7-dihydro-5H-pyrrolo[3,4-d]pyrimidin-4-yl)piperazin-2-yl)acetonitrile]?
**A.** CAF (10 minutes/60 minutes) at 10 micromolar: 10 minutes: 24%; CAF (10 minutes/60 minutes) at 10 micromolar: 60 minutes: 52%

**Q.** Which results are given for C=CC(=O)N1CCN(c2nc(OC[C@@H]3CCCN3C3CC3)nc3c2CN(C2CCc4ccccc42)C3)C[C@@H]1CC#N (stereo partly drawn) [1-198, 2-((2S)-1-acryloyl-4-(2-(((S)-1-cyclopropylpyrrolidin-2-yl)methoxy)-6-(2,3-dihydro-1H-inden-1-yl)-6,7-dihydro-5H-pyrrolo[3,4-d]pyrimidin-4-yl)piperazin-2-yl)acetonitrile]?
**A.** CAF (10 minutes/60 minutes) at 10 micromolar: 10 minutes: 15%; CAF (10 minutes/60 minutes) at 10 micromolar: 60 minutes: 18%

**Q.** C=CC(=O)N1CCN(c2nc(OC[C@@H]3CCCN3Cc3ccccc3)nc3c2CN(C2CCc4ccccc42)C3)C[C@@H]1CC#N (some centres unmarked) [1-199] was tested. Which “CAF … at 10 micromolar: 10 minutes” value did it give?
**A.** 62%

**Q.** What about the “CAF … at 10 micromolar: 60 minutes” value of the same compound?
**A.** 74%

**Q.** Which results are given for C=CC(=O)N1CCN(c2nc(OC[C@@H]3CCCN3C)nc3c2CN(C2CCc4ccccc42)C3)C[C@@H]1CS(C)(=O)=O (some centres unmarked) [1-200]?
**A.** CAF (10 minutes/60 minutes) at 10 micromolar: 10 minutes: 0%; CAF (10 minutes/60 minutes) at 10 micromolar: 60 minutes: 2%

**Q.** Which “CAF … at 10 micromolar: 10 minutes” value does the source give for C=CC(=O)N1CCN(c2nc(OC[C@@H]3CCCN3C)nc3c2CN(Cc2cccc4nc[nH]c24)C3)C[C@@H]1CC#N [1-201] here?
**A.** 79%

**Q.** And the “CAF … at 10 micromolar: 60 minutes” value?
**A.** 94%
